Laboratory results: PubChem BioAssay (NCI)
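1) Cells in 96-well plates. 2) Compound, 48 h, 5 concentrations. 3) Linear interpolation between surrounding doses. 4) Unreached endpoint = highest concentration. GI50: concentration for 50% inhibition of growth. The concentration for full growth arrest is given as TGI.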

Key:
Experiment in all cases: DTP human tumour cell line panel, 48 h
786-0 renal = tested on: 786-0 renal
A498 renal = tested on: A498 renal
A549 NSCLC = tested on: A549 NSCLC
ACHN renal = tested on: ACHN renal
BT-549 breast = tested on: BT-549 breast
CCRF-CEM leukemia = tested on: CCRF-CEM leukemia
COLO 205 colon = tested on: COLO 205 colon
DU-145 prostate = tested on: DU-145 prostate
EKVX NSCLC = tested on: EKVX NSCLC
HCC-2998 colon = tested on: HCC-2998 colon
HCT-116 colon = tested on: HCT-116 colon
HCT-15 colon = tested on: HCT-15 colon
HL-60(TB) leukemia = tested on: HL-60(TB) leukemia
HOP-62 NSCLC = tested on: HOP-62 NSCLC
HOP-92 NSCLC = tested on: HOP-92 NSCLC
HS 578T breast = tested on: HS 578T breast
HT29 colon = tested on: HT29 colon
IGROV1 ovarian = tested on: IGROV1 ovarian
K-562 leukemia = tested on: K-562 leukemia
KM12 colon = tested on: KM12 colon
LOX IMVI melanoma = tested on: LOX IMVI melanoma
M14 melanoma = tested on: M14 melanoma
MALME-3M melanoma = tested on: MALME-3M melanoma
MCF7 breast = tested on: MCF7 breast
MDA-MB-231 breast = tested on: MDA-MB-231 breast
MDA-MB-435 = tested on: MDA-MB-435
MOLT-4 leukemia = tested on: MOLT-4 leukemia
NCI-H226 lung = tested on: NCI-H226 lung
NCI-H23 lung = tested on: NCI-H23 lung
NCI-H460 lung = tested on: NCI-H460 lung
NCI-H522 lung = tested on: NCI-H522 lung
NCI/ADR-RES ovarian = tested on: NCI/ADR-RES ovarian
OVCAR-3 ovarian = tested on: OVCAR-3 ovarian
OVCAR-4 ovarian = tested on: OVCAR-4 ovarian
OVCAR-5 ovarian = tested on: OVCAR-5 ovarian
OVCAR-8 ovarian = tested on: OVCAR-8 ovarian
PC-3 prostate = tested on: PC-3 prostate
RPMI-8226 leukemia = tested on: RPMI-8226 leukemia
RXF 393 renal = tested on: RXF 393 renal
SF-268 CNS = tested on: SF-268 CNS
SF-295 CNS = tested on: SF-295 CNS
SF-539 CNS = tested on: SF-539 CNS
SK-MEL-28 melanoma = tested on: SK-MEL-28 melanoma
SK-MEL-5 melanoma = tested on: SK-MEL-5 melanoma
SK-OV-3 ovarian = tested on: SK-OV-3 ovarian
SN12C renal = tested on: SN12C renal
SNB-19 CNS = tested on: SNB-19 CNS
SNB-75 CNS = tested on: SNB-75 CNS
SW-620 colon = tested on: SW-620 colon
T-47D breast = tested on: T-47D breast
TK-10 renal = tested on: TK-10 renal
U251 CNS = tested on: U251 CNS
UACC-257 melanoma = tested on: UACC-257 melanoma
UACC-62 melanoma = tested on: UACC-62 melanoma
UO-31 renal = tested on: UO-31 renal

## CCCCCCCCCCCCCCCC(=O)N[C@H](/C=C/[C@H](O)CCCCCCCCCCCCC)CO
786-0 renal
  GI50: > 100 µM
  TGI: > 100 µM
A498 renal
  GI50: > 100 µM
  TGI: > 100 µM
A549 NSCLC
  GI50: > 100 µM
  TGI: > 100 µM
ACHN renal
  GI50: > 100 µM
  TGI: > 100 µM
BT-549 breast
  GI50: > 100 µM
  TGI: > 100 µM
CCRF-CEM leukemia
  GI50: > 100 µM
  TGI: > 100 µM
COLO 205 colon
  GI50: > 100 µM
  TGI: > 100 µM
DU-145 prostate
  GI50: > 100 µM
  TGI: > 100 µM
EKVX NSCLC
  GI50: > 100 µM
  TGI: > 100 µM
HCC-2998 colon
  GI50: > 100 µM
  TGI: > 100 µM
HCT-116 colon
  GI50: > 100 µM
  TGI: > 100 µM
HCT-15 colon
  GI50: > 100 µM
  TGI: > 100 µM
HL-60(TB) leukemia
  GI50: > 100 µM
  TGI: > 100 µM
HOP-62 NSCLC
  GI50: > 100 µM
  TGI: > 100 µM
HOP-92 NSCLC
  GI50: > 100 µM
  TGI: > 100 µM
HS 578T breast
  GI50: > 100 µM
  TGI: > 100 µM
HT29 colon
  GI50: > 100 µM
  TGI: > 100 µM
IGROV1 ovarian
  GI50: > 100 µM
  TGI: > 100 µM
K-562 leukemia
  GI50: > 100 µM
  TGI: > 100 µM
KM12 colon
  GI50: > 100 µM
  TGI: > 100 µM
LOX IMVI melanoma
  GI50: > 100 µM
  TGI: > 100 µM
M14 melanoma
  GI50: > 100 µM
  TGI: > 100 µM
MALME-3M melanoma
  GI50: > 100 µM
  TGI: > 100 µM
MCF7 breast
  GI50: > 100 µM
  TGI: > 100 µM
MDA-MB-231 breast
  GI50: > 100 µM
  TGI: > 100 µM
MDA-MB-435
  GI50: > 100 µM
  TGI: > 100 µM
MOLT-4 leukemia
  GI50: > 100 µM
  TGI: > 100 µM
NCI-H226 lung
  GI50: > 100 µM
  TGI: > 100 µM
NCI-H23 lung
  GI50: > 100 µM
  TGI: > 100 µM
NCI-H460 lung
  GI50: > 100 µM
  TGI: > 100 µM
NCI-H522 lung
  GI50: > 100 µM
  TGI: > 100 µM
NCI/ADR-RES ovarian
  GI50: > 100 µM
  TGI: > 100 µM
OVCAR-3 ovarian
  GI50: > 100 µM
  TGI: > 100 µM
OVCAR-4 ovarian
  GI50: > 100 µM
  TGI: > 100 µM
OVCAR-5 ovarian
  GI50: > 100 µM
  TGI: > 100 µM
OVCAR-8 ovarian
  GI50: > 100 µM
  TGI: > 100 µM
PC-3 prostate
  GI50: > 100 µM
  TGI: > 100 µM
RPMI-8226 leukemia
  GI50: 0.884 µM
  TGI: > 100 µM
RXF 393 renal
  GI50: > 100 µM
  TGI: > 100 µM
SF-268 CNS
  GI50: > 100 µM
  TGI: > 100 µM
SF-295 CNS
  GI50: > 100 µM
  TGI: > 100 µM
SF-539 CNS
  GI50: > 100 µM
  TGI: > 100 µM
SK-MEL-28 melanoma
  GI50: > 100 µM
  TGI: > 100 µM
SK-MEL-5 melanoma
  GI50: > 100 µM
  TGI: > 100 µM
SK-OV-3 ovarian
  GI50: > 100 µM
  TGI: > 100 µM
SN12C renal
  GI50: > 100 µM
  TGI: > 100 µM
SNB-19 CNS
  GI50: > 100 µM
  TGI: > 100 µM
SNB-75 CNS
  GI50: > 100 µM
  TGI: > 100 µM
SW-620 colon
  GI50: > 100 µM
  TGI: > 100 µM
T-47D breast
  GI50: > 100 µM
  TGI: > 100 µM
TK-10 renal
  GI50: > 100 µM
  TGI: > 100 µM
U251 CNS
  GI50: > 100 µM
  TGI: > 100 µM
UACC-257 melanoma
  GI50: > 100 µM
  TGI: > 100 µM
UACC-62 melanoma
  GI50: > 100 µM
  TGI: > 100 µM
UO-31 renal
  GI50: > 100 µM
  TGI: > 100 µM
